According to patent US20220050096A1, “ANALYTE-SENSITIVE PROBES AND CONTACT LENS FOR DIAGNOSIS OF OCULAR PATHOLOGIES” (University Of Maryland, Baltimore, priority 2020, published 2022):

Experiment: Chloride quenching (Stern-Volmer) of SPQ-C18 in contact lenses
Format: physicochemical
Procedure: Quenching by Chloride. […] The intensities (I) and lifetimes (6) are analyzed using the Stern-Volmer equation, where F0 and τ0 are the intensities and lifetimes in the absence of chloride, and K is the quenching constant and the inverse of the [Cl^-] needed for 50% quenching. For collisional quenching, the value of F0/F and τ0/τ are typically the same. In solution, in the absence of lenses, the value of K=kq τ0 can be used to calculate the biomolecular quenching constant kq and the quenching efficiency. In the lenses, the [Cl-] may not be the same as in the bulk solution, but kq in the lenses is estimated by assuming the same concentration of chloride around the SPQ moiety in the lenses and in bulk solutions. Chloride-sensitive lenses were prepared using SPQ-C18. The quinolinium moiety in SPQ-C18 can be used for chloride sensing in tears. Its unquenched lifetime near 18.5 ns (see Table 14 and Table 15, below) which results in significant changes up to chloride concentrations of 220 mM, which is well above the physiological range. BiofinityTM and […] lenses labeled with SPQ-C18 were both found to display significant quenching at physiological concentrations of chloride near 120 mM. The emission intensities of SPQ-C18 were quenched by about 50% at this chloride concentration (FIG. 31 and FIG. 32). The emission spectra are not changed by quenching so intensity-based sensing may be different in a realworld application. […] Chloride quenching was analyzed using the Stern-Volmer equation for intensities and lifetimes (equations 7 and 8). In this analysis, we used the average lifetimes (equation 2) that is more appropriate for quenching. […] In contrast quenching of SP-PL, both intensity and lifetime, continue to decrease as the chloride concentration is increased. At the molecular level, the most interesting term is the biomolecular quenching constant kq. This value can be understood by comparison with quenching of a fluorophore in solution without any steric barriers. […] This approach for SPQ-C18 in lenses is shown in both intensities and amplitude-weighted lifetimes (FIG. 35A and FIG. 35B). […] This behavior is different from SG-PL where the binding site can be saturated at high Na^+ concentrations. In contrast, quenching of OD-MQB, both intensity and lifetime, continue to decrease as the chloride concentration increased. The steady-state intensities and intensity decays can be used to calculate the bimolecular quenching constant kq. This value can be interpreted by comparison with quenching of a fluorophore in solution without any steric barriers. […] This is the same structure of SPQ-C18 but with a shorter, three carbon propenyl chain. The unquenched lifetime (τ0) of P-MQB was 26 ns, and the Stern-Volmer constant K was 140 M^-1. […] Emission spectra and time-dependent decays were obtained (data not shown). Stern-Volmer plots were obtained in water and in a Stenfilcon A (AspireTM) contact lens by plotting the normalized intensities with respect to the added chloride concentrations.

[1] = Stenfilcon A (Aspire™) contact lens

CCCCCCCCCCCCCCCCCC[n+]1cccc2cc(OC)ccc21 [SPQ-C18, N-Octadecyl-6-methoxyquinolinium bromide]
reduction of quenching constant, in lens versus SPQ-C3 in buffer: 10 fold
k (bimolecular quenching constant) (Biofinity): 0.41×10^9 m-1 sec-1
quenching constant K from lifetime measurement (Biofinity): 8.12 M⁻¹
k (bimolecular quenching constant) (MyDay): 0.37×10^9 m-1 sec-1
quenching constant K from lifetime measurement (MyDay): 7.44 M⁻¹
bimolecular quenching constant [1]: 1e+09 M⁻¹ s⁻¹
decrease in the collision rate versus SPQ-C3 in water [1]: 5.4
quenching of emission intensities (chloride near 120 mM, Biofinity and MyDay): about 50%
unquenched lifetime (in lenses): ~18.5 ns
